Where “and” joins values, the source holds several entries; their conditions need not be identical. Equal entries are not always repeated.
What was measured:
[1] = tested on: MDA-MB-231 (EGFR overexpressed) cells; test: Functional evaluation by confocal microscopy, MDA-MB-231; assay type: cell-based; details: fluorescein MTX 5 µg/mL or conjugated system 8.6 µg/mL, 24 h
Description: (§1) MDA-MB-231 (EGFR overexpressed) and SiHa (EGFR negative) cells were grown on coverslips inside the 6-well plates, and the receptor binding ability of MTX–G–P4LDN–E2 was analyzed by confocal microscopy. Fluorescein methotrexate (5 µg/mL) and fluorescein MTX conjugated system (8.6 µg/mL; having equivalent methotrexate concentrations) were added to the wells and incubated for 24 h. The cells without MTX or DDS treatment were taken as the control. Then, Hoechst 33342 (10 µg/mL) was added and incubated for 15 min. The cells were observed under a confocal laser scanning microscope at suitable magnifications.

[2] = tested on: MDA-MB-231 (EGFR overexpressed) cells; test: Receptor binding ability by flow cytometry, MDA-MB-231; assay type: cell-based; details: fluorescein MTX 5 µg/mL or fluorescein MTX-conjugated system 8.6 µg/mL (equivalent MTX), 24 h
Description: (§2) Then fluorescein MTX (5 µg/mL) and fluorescein MTX-conjugated systems (8.6 µg/mL; having equivalent MTX concentrations) were added to each well and incubated for 24 h. After incubation, the cells were trypsinized and analyzed by flow cytometry. The cells without MTX or DDS treatment were taken as the control.

[3] = tested on: SiHa cells; test: Cytotoxicity by MTT assay, SiHa; assay type: cell-based; details: SiHa (receptor negative), MTX 5 µg/mL or nanocarrier system at equivalent drug concentration (8.6 µg/mL), 48 h, triplicate
Description: (§3) The cytotoxic efficacy of MTX–G–P4LDN–E2 was analyzed by an MTT assay. The cells were seeded in a 96-well plate at a density of 5000 cells per well. […] After 48 h of incubation, the cells were washed twice with 1X PBS, followed by the addition of MTT reagent (100 μL; 5 mg/mL in PBS) and 100 μL serum-free media to all wells and incubated for 3 h. Then DMSO (100 µL) was added to solubilize the formazan crystals, formed in viable cells. After 20 min, the optical density (OD) was measured at 570 nm using a microplate reader (BioRad). The percentage cell viability was calculated as 100 percentage cytotoxicity, where: % cytotoxicity=O.D of control−O.D of test /O.D of control[…]

[4] = tested on: SiHa (EGFR negative) cells; test: Functional evaluation by confocal microscopy, SiHa; assay type: cell-based; details: fluorescein MTX 5 µg/mL or conjugated system 8.6 µg/mL, 24 h
Description: as §1

[5] = tested on: SiHa cells; test: Cell cycle analysis by flow cytometry (propidium iodide), SiHa; assay type: cell-based; details: 24 h incubation, FACS
Description: (§4) The cell cycle analysis was conducted by flow cytometry using the manufacturer’s protocol. Briefly, MDA-MB-231 and SiHa cells (1 × 10^5cells/well) were incubated with MTX and MTX–G–P4LDN–E2 for 24 h, trypsinized, and centrifuged to collect the pellet. The cells were then fixed with pre-cooled 70% ethanol at 4 °C for 45 min. After fixation, the pellet was collected carefully after centrifugation at 850× g for 5 min. It was then washed twice with 1X PBS, and 50 μL RNase (100 μg/mL) was added and incubated for 45 min at 37 °C. Then, the cells were washed with 1X PBS and stained with propidium iodide (100 μL, 50 μg/mL) for 10 min. The cellular DNA was analyzed by flow cytometer, and the percentage of cells in each phase of the cell cycle was analyzed by BD FACS Diva software.

[6] = tested on: SiHa (EGFR negative) cells; test: Receptor binding ability by flow cytometry, SiHa; assay type: cell-based; details: fluorescein MTX 5 µg/mL or fluorescein MTX-conjugated system 8.6 µg/mL (equivalent MTX), 24 h
Description: as §2

[7] = tested on: MDA-MB-231 cells; test: Cell cycle analysis by flow cytometry (propidium iodide), MDA-MB-231; assay type: cell-based; details: MDA-MB-231, 24 h incubation, FACS
Description: as §4

[8] = tested on: MDA-MB-231 tumor; test: Anti-tumor efficacy in MDA-MB-231 tumor-bearing NOD-SCID mice; assay type: in vivo; details: female NOD-SCID mice, tail vein, 5 times for 20 days
Description: For analyzing the efficacy of the nanocarrier systems, fifteen male and fifteen female NOD-SCID mice were assigned to three groups each (n = 3 in first group and n = 6 in second and third groups). Tumor was implanted by injecting cells subcutaneously in the dorsolateral flank with a concentration of 5 × 10^6 MDA-MB-231 cells to female NOD-SCID mice. When the volume of tumor reached 500–1000 mm^3, the first group of animals, serving as the control group, was given PBS (5 mL/kg body weight). The second group was given free-drug MTX (20 mg/kg) through the tail vein. The third group received MTX–G–P4LDN–E2 (35 mg/kg, equivalent to the MTX concentration) through the tail vein, and the treatment was given to the mice 5 times for 20 days.
The tumor volume and body weight of the animals were measured before each injection. The body weight and tumor volume on the final day (24th day) was also calculated. A vernier caliper was used to measure the tumor, and the tumor volume was calculated using the formula: Tumor volume (mm^3)=(length in mm)×(width in mm)^2/2
The treatment was started when the tumor volume reached 500–1000 mm^3. There were 3 groups (n = 3 for control group and n = 6 for treatment groups). First group received PBS (5 mL/kg body weight) was treated as the control. […] On every injection day, the tumor volume as well as the body weight of the animals were measured.

[9] = tested on: MDA-MB-231 cells; test: Cytotoxicity by MTT assay, MDA-MB-231; assay type: cell-based; details: MDA-MB-231 (receptor positive), MTX 5 µg/mL or nanocarrier system at equivalent drug concentration (8.6 µg/mL), 48 h, triplicate
Description: as §3

[10] = tested on: MDA-MB-231 cells; test: In vitro binding of rhodamine B-conjugated peptides, MDA-MB-231; assay type: cell-based; details: MDA-MB-231, 2 h, 37 °C, flow cytometry and confocal imaging
Description: Figure S4. Binding activities of rho B-conjugated peptides after incubating with MDA-MB-231 cells for 2 hours at 37°C. a) Untreated control MDA-MB-231 cell. MDA-MB-231 cells binding with b) E1, c) E2, d) E3, e) E4, and f) E5. g) Binding affinity percentages of rho B- conjugated peptides. […]
Figure S6. Internalization of peptides in MDA -MB-231 cells. MDA-MB-231 (EGFR overexpressed) cells were incubated with E1 to E5 peptides (50 µM) for 2 hours at 37°C. Rho-B alone was given as the control. The cells were nuclear stained […]
(1 picture or pasted object on this page, not shown here)

| Compound | Binding (fluorescence) in confocal images [1] | Binding ability (% of cells, P2) [2] | Cytotoxicity [3] [%] | Binding (fluorescence) in confocal images [4] | Percentage of cells in G0 [5] [%] | Percentage of cells in G1 [5] [%] | Percentage of cells in G2-M [5] [%] | Percentage of cells in S [5] [%] | Binding ability (% of cells, P2) [6] [%] | Percentage of cells in G0 [7] [%] | Percentage of cells in G1 [7] [%] | Percentage of cells in G2-M [7] [%] | Percentage of cells in S [7] [%] | Average tumor volume at the end of the treatment ([8]; MTX 20 mg/kg or MTX–G–P4LDN–E2 35 mg/kg (equivalent MTX), day 25, n = 6, mean ± SD, control 2890 ± 85.440) [mm^3] | Reduction in tumor volume compared to control ([8]; MTX 20 mg/kg or MTX–G–P4LDN–E2 35 mg/kg, day 25, n = 6) [%] | Cytotoxicity [9] [%] | Binding efficacy of the short peptides in vitro [10] |
| --- | --- | --- | --- | --- | --- | --- | --- | --- | --- | --- | --- | --- | --- | --- | --- | --- | --- |
| CN(Cc1cnc2nc(N)nc(N)c2n1)c1ccc(C(=O)N[C@@H](CCC(=O)O)C(=O)O)cc1 [MTX, methotrexate] | bound with the MDA-MB-231 cells similarly | 99.6% and > 99% | 57 | only the free drug showed fluorescence | 14.4 | 64.3 | 10.7 | 8.8 | 82.4 | 9 | 52.1 | 14.9 | 19.1 | 661.8 ± 209.067 | 77.2 | 63 |  |
| ARSHVGYTGAR [E2, EGFR-specific short peptide …] |  |  |  |  |  |  |  |  |  |  |  |  |  |  |  |  | highest binding efficacy |
